One data set concerns L. major amastigotes. Nature of the data set: microbe, parasite or virus in culture. The data set is classed as cell-based. Conditions: Leishmania major; intracellular amastigotes in BMDM, 24 h; read-out: Cytotoxicity (μM) L. major amastigotes (IC50). How it is done: Luciferase-transgenic (Luc-tg) L. major has been generated as described previously. The virulence of Luc-tg L. major was maintained by passage in female BALB/c mice and promastigotes were grown in vitro in blood agar cultures with addition of 50 μg/mL hygromycin B using the same conditions as described above.
A detailed protocol of antileishmanial investigations against intracellular L. major amastigotes residing within bone marrow-derived macrophages (BMDM) is described elsewhere. Briefly, 2 × 10^5/ml BMDM were infected with Luc-tg L. major promastigotes at a ratio of 1:15 for 24 h. These infected BMDM were cultured in the absence or presence of increasing concentrations of the tested compounds 1 and 2 for 24 h prior to the supplement of Britelite plus (PerkinElmer, Waltham, MA, USA) for 5 min. Britelite plus is a very sensitive assay for the quantification of firefly luciferase in Leishmania parasites. The luminescence was measured using a Victor X Light 2030 luminometer (PerkinElmer, Waltham, MA, USA).

A short description of data set [1]: AlamarBlue cytotoxicity, BMDM. The class given is cell-based. Conditions: bone marrow-derived macrophages (BMDM). How it is done: (§1) BMDM were generated in complete RPMI medium as described previously. On day six, the cytotoxicity against 2 × 10^5 cells/ml was tested at increasing concentrations of compounds 1 and 2 for 48 h. Human embryonic kidney HEK 293 T cells (ATCC, Wesel, Germany) were cultured in Dulbecco´s Modified Eagle Medium (DMEM) (Life Technologies, Darmstadt, Germany), with 10% FCS (PAA Laboratories, Germany). According to the standard operating procedures (SOP) within the Collaborative Research Center 630 (SFB 630) 2 × 10^4 HEK 293 T cells/ml were tested at increasing concentrations of compounds 1 and 2 for 48 h. Human liver carcinoma HepG2 cells (ATCC) were cultured in RPMI medium (Gibco) with 10% FCS. 1 × 10^5 cells/ml HepG2 were tested at increasing concentrations of 1 and 2 for 72 h according to the SOPs. The AlamarBlue assay was performed as described above for L. major parasites.
On the technique in general: The colour change of resazurin is a common sign of viable cells or microbes.

Data set [2] in a line: AlamarBlue cytotoxicity, HEK 293 T cells. To be noted: human. The class given is cell-based. The procedure:
as §1

The subject of data set [3] is L. major promastigotes. The data set is described as follows: Diff-Quik staining and transmitted light microscopy, cell morphology. The class given is cell-based, Leishmania major. To be noted: 100 μM. How it is done: (§2) L. major parasites harvested from blood agar cultures were washed twice with Dulbecco’s phosphate-buffered saline (DPBS; Invitrogen, Darmstadt, Germany) and centrifuged at 3.000 × g for 10 min. The pellet was suspended in RPMI 1640 medium at a final concentration of 1 × 10^8 cells/ml. Cells were treated with 1% DMSO, 122.7 μM miltefosine (1-hexadecylphorylcholine; apoptosis inducer), or 100 μM of the tested compounds 1 and 2 in a final volume of 200 μl in 96 well plates. Samples were incubated at 27°C in 5% CO2 for several time points between 30 min and 24 h. Transmitted light microscopic, transmission electron microscopic (TEM), and flow cytometric techniques were used to find phenotypic patterns caused by the treatment with the tested compounds.
After incubation for 30 min, 1 h, 2 h, 4 h, and 24 h in the presence of the tested compounds 1 and 2, promastigotes were harvested and centrifuged in a Cytospin 3 centrifuge (Shandon, Frankfurt, Germany) on microscope slides at 253 × g for 5 min at room temperature (RT). Cytospin preparations of cells were stained using the Differential Quick Stain (Diff-Quik) dye (Medion Diagnostics AG, Duedingen, Switzerland), according to the manufacturers’ protocol with some modifications. Diff-Quik stains the leishmanial nuclei and the kinetoplasts dark purple and the cytoplasm light purple allowing the observation of phenotypic changes within the parasite. Briefly, air-dried cells were fixed by dipping the slides 5 times for 3 seconds in fixative solution. Subsequently the slides were stained with Solution I following Solution II (from Diff-Quik kit) and air-dried between each staining steps. Finally, the samples were rapidly dipped once in ultra-pure water (produced by a TKA purification system apparatus, Niederelbert, Germany) to remove excessive staining solutions. The air-dried cells were analyzed by transmitted light microscopy under a 50× objective on a Nikon ECLIPSE 50i microscope equipped with a digital camera (Nikon, Tokyo, Japan). The images were processed using NIS Elements D software (Nikon).

Data set [4] concerns L. major promastigotes. The data set is described as follows: Transmission electron microscopy, mitochondrial swelling. The class given is cell-based, Leishmania major. Conditions: 100 μM, 2 h. How it is done:
as §2
L. major promastigotes were incubated for 2 h in the presence of DMSO, 100 μM of compound 1 and compound 2, respectively. After the incubation period, the parasites were harvested, contrasted and embedded following the procedure described previously. Ultrathin sections were mounted on 300-mesh grids, stained with uranyl acetate and lead citrate, and analyzed with an EM 10 transmission electron microscope (Carl Zeiss AG, Oberkochen, Germany). To describe morphological changes in a statistical manner, six photographs with approximately 50 cells were taken and the percentage of cells with swollen mitochondria per treatment was determined.

Data set [5] has as its system L. major promastigotes. The data set is described as follows: Annexin V / propidium iodide flow cytometry, cell death phenotype. The class given is cell-based, Leishmania major. Conditions: 100 μM. How it is done:
as §2
The loss of membrane integrity and translocation of phosphatidylserine (PS) to the outside of the cellular membrane can be determined by annexin V (AV) and propidium iodide (PI) staining. Double staining with AV-fluorescein isothiocyanate (FITC) and PI during flow cytometry analysis leads to discrimination between four populations: double negatives or alive cells (AV^-/PI^-), double positive or late necrotic/late apoptotic cells (AV^+/PI^+), PI-positive and AV-negative or early necrotic cells (AV^-/PI^+), and PI-negative and AV-positive or early apoptotic cells (AV^+/PI^-).
Parasites were harvested after incubation for 6 h, 10 h, and 24 h in the presence of compounds 1, 2 and miltefosine (Cayman Chemical Company, MI, USA), respectively, the latter serving as positive control for the induction of apoptotic cell death. DMSO was used as solvent control. Cell staining was performed using an AV-FITC Apoptosis detection kit (Sigma-Aldrich, Saint Louis, MO, USA). Cells were harvested, washed and suspended in 500 μL of binding buffer, 5 μL of AV-FITC and 10 μl of PI. The cells were incubated for 10 min in the dark at RT. Finally, stained samples were immediately analyzed by flow cytometry using MACSQuant analyzer or a flow cytometer (Becton Dickinson, San José, CA, USA).

This is an account of results in paper PMC4640567, “Cinnamic Acid Bornyl Ester Derivatives from Valeriana wallichii Exhibit Antileishmanial In Vivo Activity in Leishmania major-Infected BALB/c Mice” (PLoS ONE, 2015).

Where “and” joins values, the source holds several entries; their conditions need not be identical. Equal entries are not always repeated.

One may read the IC50 as the concentration that gives 50% inhibition.

Regarding `CC1(C)C2CCC1(C)C(OC(=O)CCc1ccccc1)C2` (single isomer, unassigned; (-)) [Compound 2, (-)-bornyl 3-phenylpropionate], in the data set on L. major amastigotes, the IC50 worked out at 89.1 µM. In addition, the half-maximal inhibitory concentration (IC50) at 48 h in data set [1] was over 100 µM. In addition, the half-maximal inhibitory concentration (IC50) at 48 h in data set [2] is over 100 µM. Besides, in the data set with L. major promastigotes [3], the “Time after which vacuolization and changes in cell morphology were observable” value is given as 1 h. For the same molecule, the “Counted parasites with mitochondrial swelling (TEM)” value with L. major promastigotes [4] is listed as 36%. Also, in the data set with L. major promastigotes [5] (6 h), the “LL: live cells (AV-/PI-)” value turned out to be 54.4%, the “LR: early apoptotic cells (AV+/PI-)” value came to 8.8%, the “UL: early necrotic cells (AV-/PI+)” value stood at 10.7% and the “UR: necrotic/late apoptotic cells (AV+/PI+)” value was determined as 26.1%. Moreover, in the data set with L. major promastigotes [5] (10 h), the “LL: live cells (AV-/PI-)” value turned out to be 47.2%, the “LR: early apoptotic cells (AV+/PI-)” value was found to be 9.3%, the “UL: early necrotic cells (AV-/PI+)” value is recorded as 16.8% and the “UR: necrotic/late apoptotic cells (AV+/PI+)” value is on record as 26.7%. In the data set with L. major promastigotes [5] (24 h), the “Induced cell death phenotype (per definition)” value is on record as “miltefosine-like cell death”; the “LL: live cells (AV-/PI-)” value is 21% and 20.6%; the “LR: early apoptotic cells (AV+/PI-)” value was 19% and 18.5%; the “UL: early necrotic cells (AV-/PI+)” value was 24% and 24.2%. In the data set on L. major promastigotes [5] (24 h), the “UR: necrotic/late apoptotic cells (AV+/PI+)” value is 37% and 36.7%.

For `CC1(C)C2CCC1(C)C(OC(=O)C=Cc1ccccc1)C2` (single isomer, unassigned; (-)) [Compound 1, (-)-Bornyl cinnamate], in the data set with L. major amastigotes, the half-maximal inhibitory concentration (IC50) is 10.9 µM. In addition, the IC50 at 48 h in data set [1] is 54.3 µM. In data set [2], the midpoint of inhibition, the IC50 at 48 h, lay at 83.1 µM. In the data set with L. major promastigotes [3], the “Time after which vacuolization and changes in cell morphology were observable” value was 30 min. The “Counted parasites with mitochondrial swelling (TEM)” value in the data set with L. major promastigotes [4] is given as 39%. In addition, in the data set with L. major promastigotes [5] (6 h), the “LL: live cells (AV-/PI-)” value was 71.3%, the “LR: early apoptotic cells (AV+/PI-)” value is 3.7%, the “UL: early necrotic cells (AV-/PI+)” value was determined as 12.3% and the “UR: necrotic/late apoptotic cells (AV+/PI+)” value was found to be 12.7%. In addition, in the data set on L. major promastigotes [5] (10 h), the “LL: live cells (AV-/PI-)” value worked out at 69.3%, the “LR: early apoptotic cells (AV+/PI-)” value was found to be 4.2%, the “UL: early necrotic cells (AV-/PI+)” value is reported as 12.9% and the “UR: necrotic/late apoptotic cells (AV+/PI+)” value was found to be 13.6%. In the data set on L. major promastigotes [5] (24 h), the “Induced cell death phenotype (per definition)” value is “necrotic cell death phenotype”; the “LL: live cells (AV-/PI-)” value is 33% and 33.2%; the “LR: early apoptotic cells (AV+/PI-)” value came to 4.1%; the “UL: early necrotic cells (AV-/PI+)” value was 30% and 29.8%. Besides, the “UR: necrotic/late apoptotic cells (AV+/PI+)” value in the data set on L. major promastigotes [5] (24 h) is 33% and 32.9%.
